The target in assay [1] is T1, HCV polymerase (NS5B) type 1a (Hepatitis C virus genotype 1a, UniProt P26664).
T1 construct: made in house; host or cells: Escherichia coli (by the 'similar method' of the 1b enzyme)
Description: Assay of enzyme (HCV polymerase) inhibitory activity, type 1a enzyme. The format is biochemical, HCV type 1a (cloned from the blood of patients). The conditions noted are these: HCV polymerase inhibitory activity IC50, 1a, type 1a enzyme. In short, it runs like this: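 NS5B Δ47 C-term His6 (type 1a, 1.5 μg/ml); substrate RNA 5 μg/ml; ATP/GTP/CTP 50 μM, UTP 2 μM + [5,6-3H]UTP; Tris pH 7.5, MgCl2 5 mM; 25° C, 60 min. TCA/pyrophosphate stop, GF/B filter, scintillation. IC50 vs no-compound control.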

In assay [2] the target is T2, HCV polymerase (NS5B) type 1b (Hepatitis C virus genotype 1b, UniProt P26663).
T2 construct: a region encoding NS5B (J Virol 1991 March, 65(3), 1105-13, 544 amino acids after deletion of 47 amino acids on the C-terminal); 6xHis (C); made in house; host or cells: Escherichia coli
Description: Assay of enzyme (HCV polymerase) inhibitory activity, type 1b enzyme. The conditions noted are these: HCV polymerase inhibitory activity IC50, 1b, type 1b enzyme. In kind it is biochemical, HCV BK strain (type 1b). In outline: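 Rxn: NS5B 1b (BK, ΔC47, His6) 0.5 μg/ml; substrate RNA 5 μg/ml; ATP/GTP/CTP 50 μM, UTP 2 μM + [5,6-3H]UTP; 20 mM Tris pH 7.5, 5 mM MgCl2, 50 mM NaCl, 1 mM EDTA/DTT. 25 °C, 60 min. Stop with TCA/pyrophosphate, filter, scintillation count; IC50 vs. untreated.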

As for `CCC(F)(F)c1ccc(CNC(=O)[C@H]2CN(c3cnc4cncnc4n3)CCN2S(=O)(=O)c2cc3ccccc3s2)cc1` [Example 738, (R)-1-(benzo[b]thiophene-2-sulfonyl)-4-pteridin-7-yl-piperazine-2-carboxylic acid 4-(1,1-difluoro-propyl)-benzylamide], the IC50 in assay [1] and in assay [2] was below 0.1 µM throughout.
On to `CCC(F)(F)c1ccc(CNC(=O)[C@H]2CN(c3nc4cccnc4s3)CCN2S(=O)(=O)c2ccc(OC(F)(F)F)cc2)cc1` [Example 739, (R)-4-thiazolo[5,4-b]pyridin-2-yl-1-(4-trifluoromethoxy-benzenesulfonyl)-piperazine-2-carboxylic acid 4-(1,1-difluoro-propyl)-benzylamide], for which the IC50 in assay [1] and in assay [2] was below 0.1 µM throughout.
As to `CCC(F)(F)c1ccc(CNC(=O)[C@H]2CN(c3ccc4cnccc4n3)CCN2S(=O)(=O)c2ccc(OC(F)(F)F)cc2)cc1` [Example 740, (R)-4-[1,6]naphthyridin-2-yl-1-(4-trifluoromethoxy-benzenesulfonyl)-piperazine-2-carboxylic acid 4-(1,1-difluoro-propyl)-benzylamide], the IC50 in assay [1] and in assay [2] was below 0.1 µM each time.
As for `CCC(F)(F)c1ccc(CNC(=O)[C@H]2CN(c3cnc4c(Cl)cccc4n3)CCN2S(=O)(=O)c2ccc(OC(F)(F)F)cc2)cc1` [Example 741, (R)-4-(5-chloro-quinoxalin-2-yl)-1-(4-trifluoromethoxy-benzenesulfonyl)-piperazine-2-carboxylic acid 4-(1,1-difluoro-propyl)-benzylamide], the IC50 in assay [1] is 0.1 to 1 µM; in assay [2], below 0.1 µM.
For the compound `CCC(F)(F)c1ccc(CNC(=O)[C@H]2CN(c3cnc4cccc(Cl)c4n3)CCN2S(=O)(=O)c2ccc(OC(F)(F)F)cc2)cc1` [Example 742, (R)-4-(8-chloro-quinoxalin-2-yl)-1-(4-trifluoromethoxy-benzenesulfonyl)-piperazine-2-carboxylic acid 4-(1,1-difluoro-propyl)-benzylamide], the IC50 was 0.1 to 1 µM in assay [1] and below 0.1 µM in assay [2].
Take `CCC(F)(F)c1ccc(CNC(=O)[C@H]2CN(c3cnc4cnccc4n3)CCN2S(=O)(=O)c2ccc(N3CCCC3)cc2)cc1` [Example 743, (R)-4-pyrido[3,4-b]pyrazin-2-yl-1-(4-pyrrolidin-1-yl-benzenesulfonyl)-piperazine-2-carboxylic acid 4-(1,1-difluoro-propyl)-benzylamide]: the IC50 in assay [1] and in assay [2] was below 0.1 µM throughout.
With `CCC(F)(F)c1ccc(CNC(=O)[C@H]2CN(c3cnc4cncnc4n3)CCN2S(=O)(=O)c2ccc([C@H]3CC[C@H](CC(=O)O)CC3)cc2)cc1` [Example 744, trans-[4-(4-{(R)-2-[4-(1,1-difluoro-propyl)-benzylcarbamoyl]-4-pteridin-7-yl-piperazine-1-sulfonyl}-phenyl)-cyclohexyl]-acetic acid], the IC50 in assay [1] and in assay [2] was below 0.1 µM throughout.
Take `O=C(NCc1ccc(OC(F)(F)F)cc1)[C@H]1CN(c2cnc3cnccc3n2)CCN1S(=O)(=O)c1ccc(OC(F)(F)F)cc1` [Example 745, (R)-4-pyrido[3,4-b]pyrazin-2-yl-1-(4-trifluoromethoxy-benzenesulfonyl)-piperazine-2-carboxylic acid 4-trifluoromethoxy-benzylamide]: the IC50 in assay [1] and in assay [2] was below 0.1 µM in each case.
`CCC(F)(F)c1ccc(CNC(=O)[C@H]2CN(c3cnc4cnccc4n3)CCN2S(=O)(=O)c2ccc(N3CCOCC3)cc2)cc1` [Example 746, (R)-1-(4-morpholin-4-yl-benzenesulfonyl)-4-pyrido[3,4-b]pyrazin-2-yl-piperazine-2-carboxylic acid 4-(1,1-difluoro-propyl)-benzylamide]: the IC50 in assay [1] and in assay [2] was below 0.1 µM throughout.
Consider `CCC(F)(F)c1ccc(CNC(=O)[C@H]2CN(c3cnc4cncnc4n3)CCN2S(=O)(=O)c2ccc(OC)cc2)cc1` [Example 747, (R)-1-(4-methoxy-benzenesulfonyl)-4-pteridin-7-yl-piperazine-2-carboxylic acid 4-(1,1-difluoro-propyl)-benzylamide], for which the IC50 in assay [1] and in assay [2] was below 0.1 µM throughout.
On to `CCC(F)(F)c1ccc(CNC(=O)[C@H]2CN(c3ccc4nccnc4n3)CCN2S(=O)(=O)c2ccc(OC(F)(F)F)cc2)cc1` [Example 748, (R)-4-pyrido[2,3-b]pyrazin-6-yl-1-(4-trifluoromethoxy-benzenesulfonyl)-piperazine-2-carboxylic acid 4-(1,1-difluoro-propyl)-benzylamide], for which the IC50 in assay [1] and in assay [2] was below 0.1 µM each time.
Consider `O=C(NCc1ccc(OC(F)(F)F)cc1)[C@H]1CN(c2cnc3nccnc3n2)CCN1S(=O)(=O)c1ccc(OC(F)(F)F)cc1` [Example 749, (R)-4-pyrazino[2,3-b]pyrazin-2-yl-1-(4-trifluoromethoxy-benzenesulfonyl)-piperazine-2-carboxylic acid 4-trifluoromethoxy-benzylamide], for which the IC50 in assay [1] and in assay [2] was below 0.1 µM in each case.
Turning to `O=C(NCc1ccc(OC(F)(F)F)cc1)[C@H]1CN(c2ccn3ncnc3n2)CCN1S(=O)(=O)c1ccc(OC(F)(F)F)cc1` [Example 750, (R)-4-[1,2,4]triazolo[1,5-a]pyrimidin-5-yl-1-(4-trifluoromethoxy-benzenesulfonyl)-piperazine-2-carboxylic acid 4-trifluoromethoxy-benzylamide], the IC50 in assay [1] and in assay [2] was below 0.1 µM in each case.
Regarding `CCC(F)(F)c1ccc(CNC(=O)[C@H]2CN(c3cnc4cnccc4n3)CCN2S(=O)(=O)c2ccc(N3CCCC3=O)cc2)cc1` [Example 751, (R)-1-[4-(2-oxo-pyrrolidin-1-yl)-benzenesulfonyl]-4-pyrido[3,4-b]pyrazin-2-yl-piperazine-2-carboxylic acid 4-(1,1-difluoro-propyl)-benzylamide], the IC50 in assay [1] and in assay [2] was below 0.1 µM throughout.
For `O=C(NCc1ccc(OC(F)(F)F)cc1)[C@H]1CN(c2cnc3cnccc3n2)CCN1S(=O)(=O)c1ccc(Cl)cc1` [Example 752, (R)-1-(4-chloro-benzenesulfonyl)-4-pyrido[3,4-b]pyrazin-2-yl-piperazine-2-carboxylic acid 4-trifluoromethoxy-benzylamide], the IC50 in assay [1] and in assay [2] was below 0.1 µM in each case.
As for `CCC(F)(F)c1ccc(CNC(=O)[C@H]2CN(c3cnc4cncnc4n3)CCN2S(=O)(=O)c2ccc(-c3cccc(C(=O)O)c3)cc2)cc1` [Example 753, 4′-{(R)-2-[4-(1,1-difluoro-propyl)-benzylcarbamoyl]-4-pteridin-7-yl-piperazine-1-sulfonyl}-biphenyl-3-carboxylic acid], the IC50 in assay [1] and in assay [2] was below 0.1 µM throughout.
Regarding `O=C(NCc1ccc(OC(F)(F)F)cc1)[C@H]1CN(c2cnc3cnccc3n2)CCN1S(=O)(=O)c1ccc([N+](=O)[O-])cc1` [Example 754, (R)-1-(4-nitro-benzenesulfonyl)-4-pyrido[3,4-b]pyrazin-2-yl-piperazine-2-carboxylic acid 4-trifluoromethoxy-benzylamide], the IC50 in assay [1] and in assay [2] was below 0.1 µM in each case.
For `O=C(NCc1ccc(OC(F)(F)F)cc1)[C@H]1CN(c2cnc3cnccc3n2)CCN1S(=O)(=O)c1ccc(N2CCCC2)cc1` [Example 755, (R)-4-pyrido[3,4-b]pyrazin-2-yl-1-(4-pyrrolidin-1-yl-benzenesulfonyl)-piperazine-2-carboxylic acid 4-trifluoromethoxy-benzylamide], the IC50 in assay [1] and in assay [2] was below 0.1 µM throughout.
With `CCC(F)(F)c1ccc(CNC(=O)[C@H]2CN(c3nc4ccncc4[nH]3)CCN2S(=O)(=O)c2ccc(OC(F)(F)F)cc2)cc1` [Example 756, (R)-4-(3H-imidazo[4,5-c]pyridin-2-yl)-1-(4-trifluoromethoxy-benzenesulfonyl)-piperazine-2-carboxylic acid 4-(1,1-difluoro-propyl)-benzylamide], the IC50 in assay [1] and in assay [2] was below 0.1 µM in each case.
With `O=C(NCc1ccc(OC(F)(F)F)cc1)[C@H]1CN(c2cnc3cnccc3n2)CCN1S(=O)(=O)c1ccc(C(F)(F)F)cc1` [Example 757, (R)-4-pyrido[3,4-b]pyrazin-2-yl-1-(4-trifluoromethyl-benzenesulfonyl)-piperazine-2-carboxylic acid 4-trifluoromethoxy-benzylamide], the IC50 in assay [1] and in assay [2] was below 0.1 µM throughout.
With `CCC(F)(F)c1ccc(CNC(=O)[C@H]2CN(c3nc4ccccc4[nH]3)CCN2S(=O)(=O)c2ccc(OC(F)(F)F)cc2)cc1` [Example 758, (R)-4-(1H-benzimidazol-2-yl)-1-(4-trifluoromethoxy-benzenesulfonyl)-piperazine-2-carboxylic acid 4-(1,1-difluoro-propyl)-benzylamide], the IC50 in assay [1] and in assay [2] was below 0.1 µM in each case.
Regarding `CCC(F)(F)c1ccc(CNC(=O)[C@H]2CN(c3cnc4cncnc4n3)CCN2S(=O)(=O)c2ccc(-c3nc(=O)o[nH]3)cc2)cc1` [Example 759, (R)-1-[4-(5-oxo-2,5-dihydro-[1,2,4]oxadiazol-3-yl)-benzenesulfonyl]-4-pteridin-7-yl-piperazine-2-carboxylic acid 4-(1,1-difluoro-propyl)-benzylamide], the IC50 in assay [1] and in assay [2] was below 0.1 µM each time.

The IC50 is the concentration needed to halve the response being measured. Read a low IC50 as inhibition by little substance.
